Reference: ChEMBL document CHEMBL1201862, “PubChem BioAssay data set” (2004)
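Test compounds were applied to cells in 96-well plates for 48 hours at 5 doses. GI50 is the concentration that inhibits growth by half.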 Activity calls are given as the source filed them. Cut-off read from the data, not from the text of the source: active = GI50 up to about 1.1 µM and inactive = higher.

Key:
Assay in all cases: NCI anticancer screen, dose series, 48 h
786-0 = tested on: 786-0
A498 = tested on: A498
A549 = tested on: A549
ACHN = tested on: ACHN
CAKI-1 = tested on: CAKI-1
CCRF-CEM = tested on: CCRF-CEM
COLO 205 = tested on: COLO 205
DLD-1 = tested on: DLD-1
DMS-114 = tested on: DMS-114
EKVX = tested on: EKVX
HCC 2998 = tested on: HCC 2998
HCT-116 = tested on: HCT-116
HCT-15 = tested on: HCT-15
HL-60 = tested on: HL-60
HOP-18 = tested on: HOP-18
HOP-62 = tested on: HOP-62
HOP-92 = tested on: HOP-92
HT-29 = tested on: HT-29
IGROV-1 = tested on: IGROV-1
K562 = tested on: K562
KM-20L2 = tested on: KM-20L2
KM12 = tested on: KM12
LOX IMVI = tested on: LOX IMVI
LXFL 529 = tested on: LXFL 529
M14 = tested on: M14
M19-MEL = tested on: M19-MEL
MOLT-4 = tested on: MOLT-4
Malme-3M = tested on: Malme-3M
NCI-H226 = tested on: NCI-H226
NCI-H23 = tested on: NCI-H23
NCI-H460 = tested on: NCI-H460
NCI-H522 = tested on: NCI-H522
OVCAR-3 = tested on: OVCAR-3
OVCAR-5 = tested on: OVCAR-5
OVCAR-8 = tested on: OVCAR-8
RPMI-8226 = tested on: RPMI-8226
RXF 393 = tested on: RXF 393
RXF 631 = tested on: RXF 631
SF-268 = tested on: SF-268
SF-295 = tested on: SF-295
SF-539 = tested on: SF-539
SK-MEL-28 = tested on: SK-MEL-28
SK-MEL-5 = tested on: SK-MEL-5
SK-OV-3 = tested on: SK-OV-3
SN12C = tested on: SN12C
SNB-19 = tested on: SNB-19
SNB-75 = tested on: SNB-75
SR = tested on: SR
SW-620 = tested on: SW-620
TK-10 = tested on: TK-10
U-251 = tested on: U-251
UACC-257 = tested on: UACC-257
UACC-62 = tested on: UACC-62
UO-31 = tested on: UO-31
XF498 = tested on: XF498
DMS-273 = tested on: DMS-273
OVCAR-4 = tested on: OVCAR-4
SK-MEL-2 = tested on: SK-MEL-2
SNB-78 = tested on: SNB-78

Structure (SMILES): COc1ccc(C(=O)CC2=Nc3nnc(CCCCCCCc4nnc5n4C(=O)C(CC(=O)c4ccc(OC)cc4)=N5)n3C2=O)cc1
- GI50 (786-0): > 100 µM (inactive)
- GI50 (A498): > 100 µM (inactive)
- GI50 (A549): > 100 µM (inactive)
- GI50 (ACHN): > 100 µM (inactive)
- GI50 (CAKI-1): > 100 µM (inactive)
- GI50 (CCRF-CEM): > 100 µM (inactive)
- GI50 (COLO 205): > 100 µM (inactive)
- GI50 (DLD-1): > 100 µM (inactive)
- GI50 (DMS-114): > 100 µM (inactive)
- GI50 (EKVX): > 100 µM (inactive)
- GI50 (HCC 2998): > 100 µM (inactive)
- GI50 (HCT-116): > 100 µM (inactive)
- GI50 (HCT-15): > 100 µM
- GI50 (HL-60): > 100 µM (inactive)
- GI50 (HOP-18): > 100 µM (inactive)
- GI50 (HOP-62): > 100 µM (inactive)
- GI50 (HOP-92): > 100 µM (inactive)
- GI50 (HT-29): > 100 µM (inactive)
- GI50 (IGROV-1): > 100 µM (inactive)
- GI50 (K562): > 100 µM (inactive)
- GI50 (KM-20L2): > 100 µM (inactive)
- GI50 (KM12): > 100 µM (inactive)
- GI50 (LOX IMVI): > 100 µM (inactive)
- GI50 (LXFL 529): > 100 µM (inactive)
- GI50 (M14): > 100 µM (inactive)
- GI50 (M19-MEL): > 100 µM (inactive)
- GI50 (MOLT-4): > 100 µM (inactive)
- GI50 (Malme-3M): > 100 µM (inactive)
- GI50 (NCI-H226): > 100 µM (inactive)
- GI50 (NCI-H23): > 100 µM (inactive)
- GI50 (NCI-H460): > 100 µM (inactive)
- GI50 (NCI-H522): > 100 µM (inactive)
- GI50 (OVCAR-3): > 100 µM (inactive)
- GI50 (OVCAR-5): > 100 µM (inactive)
- GI50 (OVCAR-8): > 100 µM (inactive)
- GI50 (RPMI-8226): > 100 µM (inactive)
- GI50 (RXF 393): > 100 µM (inactive)
- GI50 (RXF 631): > 100 µM (inactive)
- GI50 (SF-268): > 100 µM (inactive)
- GI50 (SF-295): > 100 µM (inactive)
- GI50 (SF-539): > 100 µM (inactive)
- GI50 (SK-MEL-28): > 100 µM (inactive)
- GI50 (SK-MEL-5): > 100 µM (inactive)
- GI50 (SK-OV-3): > 100 µM (inactive)
- GI50 (SN12C): > 100 µM (inactive)
- GI50 (SNB-19): > 100 µM (inactive)
- GI50 (SNB-75): 31.6 µM (inactive)
- GI50 (SR): > 100 µM (inactive)
- GI50 (SW-620): > 100 µM (inactive)
- GI50 (TK-10): > 100 µM (inactive)
- GI50 (U-251): > 100 µM (inactive)
- GI50 (UACC-257): > 100 µM (inactive)
- GI50 (UACC-62): > 100 µM (inactive)
- GI50 (UO-31): > 100 µM (inactive)
- GI50 (XF498): > 100 µM (inactive)

Structure (SMILES): CC(C)=NNC(=S)NC12CC3CC(CC(C3)C1)C2
- GI50 (786-0): > 100 µM (inactive)
- GI50 (A498): > 100 µM (inactive)
- GI50 (A549): > 100 µM (inactive)
- GI50 (ACHN): > 100 µM (inactive)
- GI50 (CAKI-1): > 100 µM (inactive)
- GI50 (CCRF-CEM): > 100 µM (inactive)
- GI50 (COLO 205): > 100 µM (inactive)
- GI50 (DMS-273): > 100 µM (inactive)
- GI50 (EKVX): > 100 µM (inactive)
- GI50 (HCT-116): > 100 µM (inactive)
- GI50 (HCT-15): > 100 µM
- GI50 (HL-60): > 100 µM (inactive)
- GI50 (HOP-62): > 100 µM (inactive)
- GI50 (HOP-92): > 100 µM (inactive)
- GI50 (HT-29): > 100 µM (inactive)
- GI50 (IGROV-1): > 100 µM (inactive)
- GI50 (K562): > 100 µM (inactive)
- GI50 (KM-20L2): > 100 µM (inactive)
- GI50 (KM12): > 100 µM (inactive)
- GI50 (LOX IMVI): > 100 µM (inactive)
- GI50 (LXFL 529): > 100 µM (inactive)
- GI50 (M14): > 100 µM (inactive)
- GI50 (M19-MEL): > 100 µM (inactive)
- GI50 (MOLT-4): > 100 µM (inactive)
- GI50 (NCI-H226): > 100 µM (inactive)
- GI50 (NCI-H23): > 100 µM (inactive)
- GI50 (NCI-H460): > 100 µM (inactive)
- GI50 (NCI-H522): > 100 µM (inactive)
- GI50 (OVCAR-3): > 100 µM (inactive)
- GI50 (OVCAR-4): > 100 µM (inactive)
- GI50 (OVCAR-5): > 100 µM (inactive)
- GI50 (OVCAR-8): > 100 µM (inactive)
- GI50 (RPMI-8226): > 100 µM (inactive)
- GI50 (RXF 393): > 100 µM (inactive)
- GI50 (RXF 631): > 100 µM (inactive)
- GI50 (SF-268): > 100 µM (inactive)
- GI50 (SF-295): > 100 µM (inactive)
- GI50 (SF-539): > 100 µM (inactive)
- GI50 (SK-MEL-28): > 100 µM (inactive)
- GI50 (SK-MEL-2): > 100 µM (inactive)
- GI50 (SK-MEL-5): > 100 µM (inactive)
- GI50 (SK-OV-3): > 100 µM (inactive)
- GI50 (SN12C): > 100 µM (inactive)
- GI50 (SNB-19): > 100 µM (inactive)
- GI50 (SNB-75): > 100 µM (inactive)
- GI50 (SNB-78): > 100 µM (inactive)
- GI50 (SR): > 100 µM (inactive)
- GI50 (SW-620): > 100 µM (inactive)
- GI50 (TK-10): > 100 µM (inactive)
- GI50 (U-251): > 100 µM (inactive)
- GI50 (UACC-257): > 100 µM (inactive)
- GI50 (UACC-62): > 100 µM (inactive)
- GI50 (UO-31): > 100 µM (inactive)
- GI50 (XF498): > 100 µM (inactive)

Structure (SMILES): O=C1Cc2c([nH]c3ccccc23)-c2cc(Br)ccc2N1
- GI50 (786-0): > 100 µM (inactive)
- GI50 (A498): > 100 µM (inactive)
- GI50 (A549): > 100 µM (inactive)
- GI50 (ACHN): > 100 µM (inactive)
- GI50 (CAKI-1): > 100 µM (inactive)
- GI50 (CCRF-CEM): > 100 µM (inactive)
- GI50 (COLO 205): > 100 µM (inactive)
- GI50 (DLD-1): > 100 µM (inactive)
- GI50 (DMS-114): > 100 µM (inactive)
- GI50 (DMS-273): > 100 µM (inactive)
- GI50 (EKVX): > 100 µM (inactive)
- GI50 (HCC 2998): > 100 µM (inactive)
- GI50 (HCT-116): > 100 µM (inactive)
- GI50 (HCT-15): > 100 µM
- GI50 (HL-60): > 100 µM (inactive)
- GI50 (HOP-18): > 100 µM (inactive)
- GI50 (HOP-62): > 100 µM (inactive)
- GI50 (HOP-92): > 100 µM (inactive)
- GI50 (HT-29): > 100 µM (inactive)
- GI50 (IGROV-1): > 100 µM (inactive)
- GI50 (K562): > 100 µM (inactive)
- GI50 (KM-20L2): > 100 µM (inactive)
- GI50 (KM12): > 100 µM (inactive)
- GI50 (LOX IMVI): > 100 µM (inactive)
- GI50 (LXFL 529): > 100 µM (inactive)
- GI50 (M14): > 100 µM (inactive)
- GI50 (M19-MEL): > 100 µM (inactive)
- GI50 (MOLT-4): > 100 µM (inactive)
- GI50 (Malme-3M): > 100 µM (inactive)
- GI50 (NCI-H226): > 100 µM (inactive)
- GI50 (NCI-H23): > 100 µM (inactive)
- GI50 (NCI-H460): > 100 µM (inactive)
- GI50 (NCI-H522): > 100 µM (inactive)
- GI50 (OVCAR-3): > 100 µM (inactive)
- GI50 (OVCAR-4): > 100 µM (inactive)
- GI50 (OVCAR-5): > 100 µM (inactive)
- GI50 (OVCAR-8): > 100 µM (inactive)
- GI50 (RPMI-8226): > 100 µM (inactive)
- GI50 (RXF 393): > 100 µM (inactive)
- GI50 (RXF 631): > 100 µM (inactive)
- GI50 (SF-268): > 100 µM (inactive)
- GI50 (SF-295): > 100 µM (inactive)
- GI50 (SF-539): > 100 µM (inactive)
- GI50 (SK-MEL-28): > 100 µM (inactive)
- GI50 (SK-MEL-2): > 100 µM (inactive)
- GI50 (SK-MEL-5): > 100 µM (inactive)
- GI50 (SK-OV-3): > 100 µM (inactive)
- GI50 (SN12C): > 100 µM (inactive)
- GI50 (SNB-19): > 100 µM (inactive)
- GI50 (SNB-75): > 100 µM (inactive)
- GI50 (SNB-78): > 100 µM (inactive)
- GI50 (SW-620): > 100 µM (inactive)
- GI50 (TK-10): > 100 µM (inactive)
- GI50 (U-251): > 100 µM (inactive)
- GI50 (UACC-257): > 100 µM (inactive)
- GI50 (UO-31): > 100 µM (inactive)
